20 molecules from patent publication US9206156B2, “Substituted indole derivatives” (GRÜNENTHAL GMBH, priority 2008, dated 2015) can be followed below.

One assay addresses T1, ORL1 receptor (Homo sapiens, UniProt P41146).
T1 construct: expressed in transfected cells; host or cells: CHO (recombinant CHO-ORL1 cells), membranes
Briefly: ORL1 receptor binding assay with 3H-nociceptin/orphanin FQ (WGA-SPA beads). To be noted: c=1 μM test substance; 0.5 nM 3H-nociceptin/orphanin FQ; membranes of recombinant CHO-ORL1 cells. In outline:
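Affinity given as nanomolar Ki or as % inhibition at c=1 μM. Membranes of CHO cells expressing recombinant ORL1 (20 μg protein) were incubated one hour at room temperature with 0.5 nM 3H-nociceptin/orphanin FQ in Hepes 50 mM, pH 7.4, plus MgCl2 and EDTA; bound ligand detected by SPA bead scintillation counting.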

For a further assay, the target named is T2, human μ-opiate receptor (Homo sapiens, UniProt P35372).
T2 construct: purchased NEN, Zaventem, Belgium RB-HOM; host or cells: CHO-K1 cells (membrane preparation)
Briefly: μ-opiate receptor binding assay with [3H] naloxone (WGA-SPA beads). To be noted: 1 μmol/l test substance; 1 nmol/l [3H] naloxone; CHO-K1 cell membranes expressing human μ-opiate receptor. In outline: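 Scintillation proximity readout: [3H]naloxone (1 nmol/l) displacement measured after 90 min, room temperature, on human μ-receptor CHO-K1 membranes in Tris-HCl/azide/BSA buffer; 25 μmol/l naloxone defined non-specific binding. Values are % specific-binding inhibition at 1 μmol/l, or Ki from IC50 (Cheng-Prusoff).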

T2 sequence (P35372 whole entry): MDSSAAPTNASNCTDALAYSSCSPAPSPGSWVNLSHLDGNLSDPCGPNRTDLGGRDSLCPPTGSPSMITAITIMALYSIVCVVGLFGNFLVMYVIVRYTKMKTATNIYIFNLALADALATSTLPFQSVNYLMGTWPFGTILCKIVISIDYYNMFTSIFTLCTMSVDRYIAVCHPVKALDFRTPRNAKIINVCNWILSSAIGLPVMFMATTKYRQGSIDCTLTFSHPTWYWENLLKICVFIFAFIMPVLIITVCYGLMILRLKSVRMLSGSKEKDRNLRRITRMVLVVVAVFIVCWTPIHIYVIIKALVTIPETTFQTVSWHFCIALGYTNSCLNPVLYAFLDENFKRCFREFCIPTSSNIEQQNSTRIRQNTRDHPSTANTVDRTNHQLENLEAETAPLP
T1 sequence (P41146 whole entry): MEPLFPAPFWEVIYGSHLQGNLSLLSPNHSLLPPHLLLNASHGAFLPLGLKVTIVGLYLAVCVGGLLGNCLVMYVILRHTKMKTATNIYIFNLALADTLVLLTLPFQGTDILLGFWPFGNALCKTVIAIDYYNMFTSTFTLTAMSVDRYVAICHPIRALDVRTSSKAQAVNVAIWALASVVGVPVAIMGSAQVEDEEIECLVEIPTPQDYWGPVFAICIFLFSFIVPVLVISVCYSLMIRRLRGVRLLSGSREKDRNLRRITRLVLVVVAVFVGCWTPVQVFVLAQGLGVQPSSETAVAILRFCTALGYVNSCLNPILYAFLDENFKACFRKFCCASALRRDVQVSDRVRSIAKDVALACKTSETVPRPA

For orientation: inhibition means the percentage by which the read-out fell short of the control. Regarding `CN(C)C1(c2ccccc2)CCN(C(=O)C2CN(C(=O)c3cccc4c3ccn4C)c3ccccc32)CC1` (stereo not shown) [Example 114, (4-(dimethylamino)-4-phenylpiperidin-1-yl)(1-(1-methyl-1H-indole-4-carbonyl)indolin-3-yl)methanone], the values for the inhibition at 1 µM at ORL1 receptor and at human μ-opiate receptor were 56% and 90%, respectively.
Taken in the same sequence, the figures for `CN(C)C1(c2ccccc2)CCN(C(=O)C2CCCN(C(=O)Cc3c[nH]c4ccc(Br)cc34)C2)CC1` (stereo not shown) [Example 115, 2-(5-bromo-1H-indol-3-yl)-1-(3-(4-(dimethylamino)-4-phenylpiperidine-1-carbonyl)piperidin-1-yl)ethanone] were 53% and 72%.
Taken in the same sequence, the figures for `CN(C)C1(c2cccs2)CCN(C(=O)CNC(=O)C2CCCc3c2[nH]c2ccc(Cl)cc32)CC1` (stereo not shown) [Example 116, 6-chloro-N-(2-(4-(dimethylamino)-4-(thiophen-2-yl)piperidin-1-yl)-2-oxoethyl)-2,3,4,9-tetrahydro-1H-carbazole-1-carboxamide] were 50% and 83%.
For `CN(C)C1(c2ccccc2)CCN(C(=O)CCNC(=O)CCc2cn(C)c3ccccc23)CC1` [Example 117, N-(3-(4-(dimethylamino)-4-phenylpiperidin-1-yl)-3-oxopropyl)-3-(1-methyl-1H-indol-3-yl)propanamide], in that order: 48% and 79%.
For the molecule `CN(C)C1(c2ccccc2)CCN(C(=O)C2CN(C(=O)c3ccc4ccn(C)c4c3)c3ccccc32)CC1` (stereo not shown) [Example 118, (4-(dimethylamino)-4-phenylpiperidin-1-yl)(1-(1-methyl-1H-indole-6-carbonyl)indolin-3-yl)methanone], the inhibition at 1 µM on ORL1 receptor came to 46%; on human μ-opiate receptor it was 97%.
Taken in the same sequence, the figures for `CN(CCN1CCC(c2ccccc2)(N(C)C)CC1)C(=O)c1ccc2ccn(C)c2c1` [Example 119, N-(2-(4-(dimethylamino)-4-phenylpiperidin-1-yl)ethyl)-N,1-dimethyl-1H-indole-6-carboxamide] were 45% and 95%.
Taken in the same sequence, the figures for `CN(C)c1ccc2cc(C(=O)NCCC(=O)N3CCC(c4ccccc4)(N(C)C)CC3)[nH]c2c1` [Example 120, 6-(dimethylamino)-N-(3-(4-(dimethylamino)-4-phenylpiperidin-1-yl)-3-oxopropyl)-1H-indole-2-carboxamide] were 45% and 60%.
Taken in the same sequence, the figures for `CN(C)C1(c2ccccc2)CCN(C(=O)CCNC(=O)c2cccc3c2ccn3C)CC1` [Example 121, N-(3-(4-(dimethylamino)-4-phenylpiperidin-1-yl)-3-oxopropyl)-1-methyl-1H-indole-4-carboxamide] were 44% and 88%.
Consider `CC(CC(=O)N1CCCC(C(=O)N2CCC(c3ccccc3)(N(C)C)CC2)C1)c1c[nH]c2ccccc12` (stereo not shown) [Example 122, 1-(3-(4-(dimethylamino)-4-phenylpiperidine-1-carbonyl)piperidin-1-yl)-3-(1H-indol-3-yl)butan-1-one], for which the inhibition at 1 µM on ORL1 receptor came out at 43%; on human μ-opiate receptor, 84%.
Taken in the same sequence, the figures for `CN(C)C1(c2ccccc2)CCN(C(=O)C2CCCN(C(=O)CCc3c[nH]c4ccccc34)C2)CC1` (stereo not shown) [Example 123, 1-(3-(4-(dimethylamino)-4-phenylpiperidine-1-carbonyl)piperidin-1-yl)-3-(1H-indol-3-yl)propan-1-one] were 43% and 72%.
For `CN(C)C1(c2ccccc2)CCN(C(=O)C2CCCN(C(=O)Cc3c[nH]c4cc(F)ccc34)C2)CC1` (stereo not shown) [Example 124, 1-(3-(4-(dimethylamino)-4-phenylpiperidine-1-carbonyl)piperidin-1-yl)-2-(6-fluoro-1H-indol-3-yl)ethanone], in that order: 43% and 64%.
In the case of `CN(C)C1(c2ccccc2)CCN(C(=O)C2CCCN(C(=O)c3ccc4cc[nH]c4c3)C2)CC1` (stereo not shown) [Example 125, (1-(1H-indole-6-carbonyl)piperidin-3-yl)(4-(dimethylamino)-4-phenylpiperidin-1-yl)methanone], the values for the inhibition at 1 µM on ORL1 receptor and at human μ-opiate receptor were 42% and 55%, respectively.
For `CN(C(=O)CCc1cn(C)c2ccccc12)C(C(=O)N1CCC(c2cccs2)(N(C)C)CC1)c1ccccc1` (stereo not shown) [Example 126, N-(2-(4-(dimethylamino)-4-(thiophen-2-yl)piperidin-1-yl)-2-oxo-1-phenylethyl)-N-methyl-3-(1-methyl-1H-indol-3-yl)propanamide], in that order: 40% and 90%.
For `CN(CCN1CCC(c2ccccc2)(N(C)C)CC1)C(=O)C1CCCc2c1[nH]c1ccc(Cl)cc21` (stereo not shown) [Example 127, 6-chloro-N-(2-(4-(dimethylamino)-4-phenylpiperidin-1-yl)ethyl)-N-methyl-2,3,4,9-tetrahydro-1H-carbazole-1-carboxamide], the “% Inhibition (ORL1) at 1 μM” value at ORL1 receptor is 39%. This molecule also registered an inhibition at 1 µM on human μ-opiate receptor of 68%.
On to `CN(C)C1(c2ccccc2)CCN(C(=O)C2CCCN(C(=O)c3ccc4ccn(C)c4c3)C2)CC1` (stereo not shown) [Example 128, (4-(dimethylamino)-4-phenylpiperidin-1-yl)(1-(1-methyl-1H-indole-6-carbonyl)piperidin-3-yl) methanone], for which the inhibition at 1 µM at ORL1 receptor worked out at 39%; on human μ-opiate receptor it was 56%.
For `COc1ccc2[nH]c(C(=O)NCCC(=O)N3CCC(c4ccccc4)(N(C)C)CC3)cc2c1` [Example 129, N-(3-(4-(dimethylamino)-4-phenylpiperidin-1-yl)-3-oxopropyl)-5-methoxy-1H-indole-2-carboxamide], in that order: 37% and 73%.
With `CN(C)C1(c2ccccc2)CCN(C(=O)C2CCCN(C(=O)c3cccc4c3ccn4C)C2)CC1` (stereo not shown) [Example 130, (4-(dimethylamino)-4-phenylpiperidin-1-yl)(1-(1-methyl-1H-indole-4-carbonyl)piperidin-3-yl) methanone], the inhibition at 1 µM at ORL1 receptor is 36%; at human μ-opiate receptor, 51%.
Taken in the same sequence, the figures for `CN(C)C1(c2ccccc2)CCN(C(=O)C2CCCN(C(=O)c3c[nH]c4ccccc34)C2)CC1` (stereo not shown) [Example 131, (1-(1H-indole-3-carbonyl)piperidin-3-yl)(4-(dimethylamino)-4-phenylpiperidin-1-yl)methanone] were 34% and 43%.
For the molecule `CC(C)C(C(=O)N1CCC(c2ccccc2)(N(C)C)CC1)N(C)C(=O)CCc1cn(C)c2ccccc12` (stereo not shown) [Example 132, N-(1-(4-(dimethylamino)-4-phenylpiperidin-1-yl)-3-methyl-1-oxobutan-2-yl)-N-methyl-3-(1-methyl-1H-indol-3-yl)propanamide], the results for the inhibition at 1 µM at ORL1 receptor and on human μ-opiate receptor were 34% and 63%, respectively.
For `CN(C)C1(c2ccccc2)CCN(C(=O)C2CCCN(C(=O)CCc3cn(C)c4ccccc34)C2)CC1` (stereo not shown) [Example 133, 1-(3-(4-(dimethylamino)-4-phenylpiperidine-1-carbonyl)piperidin-1-yl)-3-(1-methyl-1H-indol-3-yl)propan-1-one], in that order: 32% and 71%.
